Measurements: patent publication US20060069132A1, “Azolecarboxamide herbicides” (priority 2004, published 2006)

Experiments:
[1] = system: barnyardgrass; assay: Test B pre-/postemergence herbicide test; assay type: in vivo, Echinochloa crus-galli
Summary of the method: (§1)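 Visual rating, 0 (no effect) to 100 (complete control), versus untreated controls after 13–15 d in greenhouse. Pre- and postemergence applications (postemergence plants 2–18 cm, 1–4 leaves); flooded paddy arm at 2-leaf stage. Compounds in non-phytotoxic solvent plus surfactant.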

[2] = system: Surinam grass; assay: Test B pre-/postemergence herbicide test; assay type: in vivo, Urochloa decumbens
Summary of the method: (§2)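 Plants compared with untreated controls 13–15 days post-treatment and given a visual 0–100 injury score. Applications: preemergence to seeds; postemergence at 1- to 4-leaf (2–18 cm); paddy species flooded, 2-leaf stage. Vehicle non-phytotoxic, surfactant included.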

[3] = system: cocklebur; assay: Test B pre-/postemergence herbicide test; assay type: in vivo, Xanthium strumarium
Summary of the method: as §1

[4] = system: corn; assay: Test B pre-/postemergence herbicide test; assay type: in vivo, Zea mays
Summary of the method: as §2

[5] = system: large crabgrass; assay: Test B pre-/postemergence herbicide test; assay type: in vivo, Digitaria sanguinalis
Summary of the method: as §2

[6] = system: giant foxtail; assay: Test B pre-/postemergence herbicide test; assay type: in vivo, Setaria faberi
Summary of the method: as §2

[7] = system: lambsquarters; assay: Test B pre-/postemergence herbicide test; assay type: in vivo, Chenopodium album
Summary of the method: as §2

[8] = system: morningglory; assay: Test B pre-/postemergence herbicide test; assay type: in vivo, Ipomoea coccinea
Summary of the method: as §1

[9] = system: pigweed; assay: Test B pre-/postemergence herbicide test; assay type: in vivo, Amaranthus retroflexus
Summary of the method: as §2

[10] = system: velvetleaf; assay: Test B pre-/postemergence herbicide test; assay type: in vivo, Abutilon theophrasti
Summary of the method: as §2

[11] = system: blackgrass; assay: Test B postemergence herbicide test; assay type: in vivo, Alopecurus myosuroides
Summary of the method: (§3)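 Visual ratings, 0 (no effect) to 100 (complete control), made versus controls after 13–15 d greenhouse. Paddy plants treated at 2-leaf stage; postemergence plants at 1- to 4-leaf stage, 2–18 cm tall.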

[12] = system: wheat; assay: Test B postemergence herbicide test; assay type: in vivo, Triticum aestivum; set-up: key to Wheat plant response rating: 0 = no effect, 100 = complete control
Summary of the method: (§4)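 After treating 2-leaf paddy plants or 2–18 cm postemergence plants (1 to 4 leaves) with formulated chemical, researchers kept them in a greenhouse for 13–15 days. Effects were judged visually versus controls: 0 indicates none, 100 total control.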

[13] = system: wild oat; assay: Test B postemergence herbicide test; assay type: in vivo, Avena fatua
Summary of the method: as §4

[14] = system: rice; assay: Test B flooded paddy test; assay type: in vivo, Oryza sativa; settings: scale 0 to 100 (0 no effect, 100 complete control)
Summary of the method: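 Formulated test chemicals went onto postemergence plants measuring 2 to 18 cm, at one to four leaves. For the paddy assay, species had reached two leaves. Scoring took place 13–15 days later by eye, relative to untreated plants, using 0 for no effect up to 100 for full control.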

[15] = system: small flower umbrella sedge; assay: Test B flooded paddy test; assay type: in vivo, Cyperus difformis; settings: scale 0 to 100 (0 no effect, 100 complete control)
Summary of the method: as §3

[16] = system: ducksalad; assay: Test B flooded paddy test; assay type: in vivo, Heteranthera limosa; settings: scale 0 to 100 (0 no effect, 100 complete control)
Summary of the method: as §3

[17] = system: barnyardgrass; assay: Test B flooded paddy test; assay type: in vivo, Echinochloa crus-galli; settings: scale 0 to 100 (0 no effect, 100 complete control)
Summary of the method: as §3

[18] = system: rice; assay: Test C flooded paddy test; assay type: in vivo, Oryza sativa; settings: for Plant response rating, Rice: 500 g ai/ha, visual rating after 12 to 14 days
Method: (§5) At the same time, plants selected from these crop and weed species and also winter barley (Hordeum vulgare L.), blackgrass (Alopecurus myosuroides Huds.), canarygrass (Phalaris minor Retz.), chickweed (Stellaria media (L.) Vill.), downy bromegrass (Bromus tectorum L.), green foxtail (Setaria viridis (L.) Beauv.), Italian ryegrass (Lolium multiflorum Lam.), wheat (Triticum aestivum L.), wild oat (Avenafatua L.) and windgrass (Apera spica-venti (L.) Beauv.) were treated with postemergence applications of some of the test chemicals formulated in the same manner. Plants ranged in height from 2 to 18 cm (1- to 4-leaf stage) for postemergence treatments. Plant species in the flooded paddy test consisted of rice (Oryza sativa), smallflower umbrella sedge (Cyperus difformis L.), ducksalad (Heteranthera limosa (Sw.) Willd.) and barnyardgrass (Echinochloa crus-galli (L.) Beauv.) grown to the 2-leaf stage for testing. Treated plants and controls were maintained in a greenhouse for 12 to 14 days, after which time all species were compared to controls and visually evaluated. Plant response ratings, summarized in Table C, are based on a scale of 0 to 100 where 0 is no effect and 100 is complete control. A dash (-) response means no test result.

[19] = system: smallflower umbrella sedge; assay: Test C flooded paddy test; assay type: in vivo, Cyperus difformis; settings: for Plant response rating, Sedge, Umbrella: 500 g ai/ha, visual rating after 12 to 14 days
Method: as §5

[20] = system: ducksalad; assay: Test C flooded paddy test; assay type: in vivo, Heteranthera limosa; settings: for Plant response rating, Ducksalad: 500 g ai/ha, visual rating after 12 to 14 days
Method: as §5

[21] = system: barnyardgrass; assay: Test C flooded paddy test; assay type: in vivo, Echinochloa crus-galli; settings: for Plant response rating, Barnyardgrass: 500 g ai/ha, visual rating after 12 to 14 days
Method: as §5

[22] = 125 g ai/ha, 0 is no effect, 100 is complete control, preemergence
[23] = 125 g ai/ha, visual rating, scale 0 (no effect) to 100 (complete control), postemergence
[24] = 500 g ai/ha, visual rating, 0 = no effect, 100 = complete control, preemergence
[25] = postemergence, 500 g ai/ha, scale 0 to 100, 0 is no effect, 100 is complete control
[26] = 125 g ai/ha, scale 0 to 100 (0 no effect, 100 complete control)
[27] = 250 g ai/ha, scale of 0 to 100, 0 is no effect, 100 is complete control
[28] = scale 0 to 100 (0 no effect, 100 complete control)
[29] = 62 g ai/ha, scale 0 to 100 (0 no effect, 100 complete control)
[30] = Postemergence, 250 g ai/ha, scale 0 (no effect) to 100 (complete control)
[31] = postemergence, 62 g ai/ha, scale 0 to 100
[32] = 1000 g ai/ha, visual rating, 13 to 15 days
[33] = Postemergence, 500 g ai/ha, scale 0 (no effect) to 100 (complete control)
[34] = postemergence, 125 g ai/ha, scale 0 to 100

CCOC(=O)c1ccc(F)c(NC(=O)C2CN(C(C)(C)C)N=C2CC)c1 (racemic) [Compound 335]
35: Ducksalad plant response rating [20, 26]
0: Barnyardgrass plant response rating [1, 23] | Plant response rating (0 to 100 scale), Cocklebur [3, 22] | Plant response rating (0 to 100 scale), Lambsquarters [7, 22] | Plant response rating (0 to 100 scale), Morningglory [8, 22] | Plant response rating (0 to 100 scale), Pigweed [9, 22] | Ducksalad plant response rating ([20]; 62 g ai/ha, scale 0 to 100)
65: Plant response rating, Barnyardgrass [21, 28]
10: Surinam Grass plant response rating [2, 23] | Cocklebur plant response rating [3, 23] | Plant response rating, Cocklebur [3, 24] | Corn plant response rating [4, 23] | Crabgrass, Large plant response rating [5, 23] | Lambsquarters plant response rating [7, 23] | Plant response rating, Lambsquarters [7, 24] | Morningglory plant response rating [8, 23] | Plant response rating, Morningglory [8, 24] | Plant response rating, Pigweed [9, 24] | Blackgrass plant response rating [11, 23] | Wheat plant response rating [12, 23] | Barnyardgrass plant response rating [21, 29]
100: Plant response rating, Crabgrass, Large [5, 24]
40: Plant response rating, Surinam Grass [2, 24] | Crabgrass, Large plant response rating [5, 25] | Foxtail, Giant plant response rating [6, 25] | Morningglory plant response rating [8, 25] | Plant response rating (0 to 100 scale), Velvetleaf [10, 22] | Oat, Wild plant response rating [13, 25] | Barnyardgrass plant response rating [21, 27]
45: Sedge, Umbrella plant response rating ([19]; 62 g ai/ha, scale 0 to 100)
20: Corn plant response rating [4, 25] | Foxtail, Giant plant response rating [6, 23] | Pigweed plant response rating [9, 23] | Wheat plant response rating [12, 25] | Oat, Wild plant response rating [13, 23]
70: Cocklebur plant response rating [3, 25] | Pigweed plant response rating [9, 25] | Rice plant response rating ([14]; 1000 g ai/ha) | Plant response rating, Ducksalad [20, 28]
25: Rice plant response rating ([18]; 62 g ai/ha, scale 0 to 100) | Rice plant response rating [18, 26] | Barnyardgrass plant response rating [21, 26]
85: Sedge, Umbrella plant response rating [19, 26]
55: Rice plant response rating [18, 27] | Plant response rating, Rice [18, 28]
30: Plant response rating (0 to 100 scale), Surinam Grass [2, 22] | Surinam Grass plant response rating [2, 25] | Plant response rating (0 to 100 scale), Corn [4, 22] | Lambsquarters plant response rating [7, 25] | Velvetleaf plant response rating [10, 23] | Blackgrass plant response rating [11, 25]
95: Plant response rating, Sedge, Umbrella [19, 28]
80: Sedge, Umbrella plant response rating ([15]; 1000 g ai/ha)
50: Plant response rating (0 to 100 scale), Barnyardgrass [1, 22] | Barnyardgrass plant response rating [1, 25] | Plant response rating, Corn [4, 24] | Plant response rating (0 to 100 scale), Crabgrass, Large [5, 22] | Ducksalad plant response rating [20, 27]
90: Plant response rating, Foxtail, Giant [6, 24] | Ducksalad plant response rating ([16]; 1000 g ai/ha) | Sedge, Umbrella plant response rating [19, 27]
60: Plant response rating, Barnyardgrass [1, 24] | Plant response rating (0 to 100 scale), Foxtail, Giant [6, 22] | Velvetleaf plant response rating [10, 25] | Barnyardgrass plant response rating ([17]; 1000 g ai/ha)

CCNC(=O)c1cccc(NC(=O)c2cn(C(C)(C)C)nc2C(F)(F)F)c1 [Compound 192]
20: Crabgrass, Large plant response rating [5, 30] | Foxtail, Giant plant response rating [6, 30] | Velvetleaf plant response rating [10, 31] | Oat, Wild plant response rating [13, 30]
60: Cocklebur plant response rating [3, 30] | Morningglory plant response rating [8, 31] | Pigweed plant response rating [9, 30] | Plant response rating, Ducksalad [20, 28]
45: Rice plant response rating [18, 27]
80: Lambsquarters plant response rating [7, 30] | Sedge, Umbrella plant response rating [15, 32] | Ducksalad plant response rating [16, 32] | Barnyardgrass plant response rating [17, 32]
10: Barnyardgrass plant response rating [1, 30] | Surinam Grass plant response rating [2, 30] | Surinam Grass plant response rating [2, 31] | Corn plant response rating [4, 30] | Corn plant response rating [4, 31] | Crabgrass, Large plant response rating [5, 31] | Foxtail, Giant plant response rating [6, 31] | Wheat plant response rating ([12]; 250 g ai/ha, scale 0 to 100, 0 no effect, 100 complete control, preemergence) | Oat, Wild plant response rating [13, 31]
50: Velvetleaf plant response rating [10, 30]
85: Sedge, Umbrella plant response rating [19, 27]
15: Rice plant response rating [18, 26]
0: Barnyardgrass plant response rating [1, 31] | Cocklebur plant response rating [3, 31] | Blackgrass plant response rating [11, 30] | Blackgrass plant response rating [11, 31] | Wheat plant response rating [12, 30] | Wheat plant response rating [12, 31] | Rice plant response rating [18, 29] | Ducksalad plant response rating [20, 29] | Ducksalad plant response rating [20, 26] | Barnyardgrass plant response rating [21, 29] | Barnyardgrass plant response rating ([21]; 125 g ai/ha, scale of 0 to 100, 0 is no effect, 100 is complete control) | Barnyardgrass plant response rating [21, 27]
100: Morningglory plant response rating [8, 30]
70: Lambsquarters plant response rating [7, 31] | Rice plant response rating [14, 32] | Plant response rating, Rice [18, 28] | Sedge, Umbrella plant response rating [19, 29] | Plant response rating, Barnyardgrass [21, 28]
25: Ducksalad plant response rating [20, 27]
90: Plant response rating, Sedge, Umbrella [19, 28]
75: Sedge, Umbrella plant response rating [19, 26]
30: Pigweed plant response rating [9, 31]

C=Cc1nn(C(C)(C)C)nc1C(=O)Nc1cccc(C(=O)N(C)C)c1 [Compound 445]
30: Barnyardgrass plant response rating ([1]; Postemergence, 125 g ai/ha, scale 0 (no effect) to 100 (complete control)) | Surinam Grass plant response rating [2, 33] | Crabgrass, Large plant response rating [5, 34] | Foxtail, Giant plant response rating [6, 33] | Foxtail, Giant plant response rating [6, 34] | Wheat plant response rating [12, 34]
80: Cocklebur plant response rating [3, 33] | Lambsquarters plant response rating [7, 33] | Morningglory plant response rating [8, 33] | Rice plant response rating ([14]; 125 g ai/ha) | Sedge, Umbrella plant response rating ([15]; 125 g ai/ha) | Ducksalad plant response rating ([16]; 125 g ai/ha)
50: Pigweed plant response rating [9, 34] | Velvetleaf plant response rating [10, 33] | Velvetleaf plant response rating [10, 34] | Blackgrass plant response rating [11, 33] | Wheat plant response rating [12, 33]
90: Barnyardgrass plant response rating ([17]; 125 g ai/ha)
40: Barnyardgrass plant response rating [1, 33] | Cocklebur plant response rating [3, 34] | Corn plant response rating [4, 33] | Crabgrass, Large plant response rating [5, 33] | Blackgrass plant response rating [11, 34] | Oat, Wild plant response rating [13, 34]
60: Lambsquarters plant response rating [7, 34] | Morningglory plant response rating [8, 34] | Pigweed plant response rating [9, 33] | Oat, Wild plant response rating [13, 33]
20: Surinam Grass plant response rating [2, 34] | Corn plant response rating [4, 34]
100: Wheat plant response rating ([12]; 500 g ai/ha, scale 0 to 100, 0 no effect, 100 complete control, preemergence)
